# Square brackets hold non-standard residues; d marks the D form. Peptide text beside a SMILES is read from it. dPip = O=C(O)[C@H]1CCCCN1; Nphe = O=C(O)CNCc1ccccc1; Nleu = CC(C)CNCC(=O)O
# Tests used:
# [1] = target: T1, Bovine trypsin (Bos taurus, UniProt P00760); assay: Serine protease selectivity, Kass, trypsin chromogenic assay; format: biochemical; details: apparent association constant
# T1 construct: purchased Worthington Biochemicals, Freehold, N.J
# T1 sequence (P00760 24-246): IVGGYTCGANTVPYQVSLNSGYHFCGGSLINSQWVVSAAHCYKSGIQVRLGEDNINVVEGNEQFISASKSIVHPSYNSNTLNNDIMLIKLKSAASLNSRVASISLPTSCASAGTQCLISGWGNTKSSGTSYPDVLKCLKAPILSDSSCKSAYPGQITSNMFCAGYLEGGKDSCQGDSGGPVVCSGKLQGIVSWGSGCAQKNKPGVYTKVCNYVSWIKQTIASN
# Method: (§1) By substantially following the procedures described above for human thrombin, and using other human blood coagulation system serine proteases and proteases of the fibrinolytic system with the appropriate chromogenic substrates, identified below, selectivity of the compounds of the present invention with respect to the coagulation factor serine proteases and with respect to the fibrinolytic system serine proteases are evaluated as well as their substantial lack of interference with serine proteases of the fibrinolytic system. Thrombin inhibitors preferably should spare fibrinolysis induced by urokinase, tissue plasminogen activator (t-PA) and streptokinase. This would be important to the therapeutic use of such agents as an adjunct to streptokinase, t-PA or urokinase thrombolytic therapy and to the use of such agents as an endogenous fibrinolysis-sparing (with respect to t-PA and urokinase) antithrombotic agent. In addition to the lack of interference with the amidase activity of the fibrinolytic proteases, such fibrinolytic system sparing can be studied by the use of human plasma clots and their lysis by the respective fibrinolytic plasminogen activators.
# (§2) Human factors X, Xa, IXa, XIa, and XIIa are purchased from Enzyme Research Laboratories, South Bend, Ind.; human urokinase from Leo Pharmaceuticals, Denmark; and recombinant activated Protein C (aPC) is prepared at Eli Lilly and Co. substantially according to U.S. Pat. No. 4,981,952 incorporated by reference herein in its entirety. Chromogenic substrates: N--Benzoyl--Ile--Glu--Gly--Arg--p--nitroanilide (for factor Xa); N--Cbz--D--Arg--Gly--Arg--p--nitroanilide (for factor IXa assay as the factor Xa substrate); Pyroglutamyl--Pro--Arg--p--nitroanilide (for Factor XIa and for aPC); H--D--Pro--Phe--Arg--p--nitroanilide (for factor XIIa); and Pyroglutamyl--Gly--Arg--p--nitroanilide (for urokinase); are purchased from KabiVitrum, Stockholm, Sweden, or from Midwest Biotech, Fishers, Indiana. Bovine trypsin is purchased from Worthington Biochemicals, Freehold, N.J., and human plasma kallikrein from Kabi Vitrum, Stockholm, Sweden. Chromogenic substrate H--D--Pro--Phe--Arg--p--nitroanilide for plasma kallikrein is purchased from Kabi Vitrum, Stockholm, Sweden. N--Benzoyl--Phe--Val--Arg--p--nitroanilide, the substrate for human thrombin and for trypsin, is synthesized according to procedures described above for the compounds of the present invention, using known methods of peptide coupling from commercially available reactants or purchased from Midwest Biotech, Fishers, Ind.
# [2] = target: T2, Human plasmin (Homo sapiens, UniProt P00747); assay: Fibrinolytic protease selectivity, Kass, plasmin chromogenic assay; format: biochemical; details: apparent association constant
# T2 construct: Human plasmin is purchased from Boehringer Mannheim; purchased Boehringer Mannheim, Indianapolis, Indiana
# T2 sequence (P00747 581-810 limits assumed): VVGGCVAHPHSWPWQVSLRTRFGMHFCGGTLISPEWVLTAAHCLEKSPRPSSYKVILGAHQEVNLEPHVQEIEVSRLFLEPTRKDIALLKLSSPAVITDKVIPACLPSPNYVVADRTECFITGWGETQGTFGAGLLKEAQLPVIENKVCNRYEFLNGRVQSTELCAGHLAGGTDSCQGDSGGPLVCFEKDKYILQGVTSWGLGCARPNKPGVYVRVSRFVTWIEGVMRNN
# T2 sequence (P00747 97-580 partner limits assumed): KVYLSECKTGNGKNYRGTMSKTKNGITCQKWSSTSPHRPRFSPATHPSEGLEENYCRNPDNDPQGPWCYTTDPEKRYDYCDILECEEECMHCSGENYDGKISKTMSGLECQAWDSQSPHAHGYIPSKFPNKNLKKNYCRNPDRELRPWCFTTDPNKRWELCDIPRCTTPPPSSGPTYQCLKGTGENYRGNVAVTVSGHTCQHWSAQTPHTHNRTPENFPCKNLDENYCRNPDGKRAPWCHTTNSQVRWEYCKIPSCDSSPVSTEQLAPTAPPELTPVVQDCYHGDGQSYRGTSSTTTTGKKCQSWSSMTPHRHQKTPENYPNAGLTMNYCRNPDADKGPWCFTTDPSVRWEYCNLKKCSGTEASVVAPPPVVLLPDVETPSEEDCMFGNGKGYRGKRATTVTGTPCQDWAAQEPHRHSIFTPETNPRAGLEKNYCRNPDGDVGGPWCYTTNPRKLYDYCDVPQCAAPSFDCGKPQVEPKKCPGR
# Method: as §1
# (§3) Human plasmin is purchased from Boehringer Mannheim, Indianapolis, Indiana; nt-PA is purchased as single chain activity reference from American Diagnostica, Greenwich, Conn.; modified-t-PA6 (mt-PA6) is prepared at Eli Lilly and Company by procedure known in the art (See, Burck, et al., J. Biol. Chem., 265, […] (1990). Plasmin chromogenic substrate H--D--Val--Leu--Lys--p--nitroanilide and tissue plasminogen activator (t-PA) substrate H--D--Ile--Pro--Arg--p--nitroanilide are purchased from Kabi Vitrum, Stockholm, Sweden.
# [3] = test system: human plasma; assay: Human plasma anticoagulation, thrombin time (TT); details: concentration required to double the thrombin time, linear extrapolation
# Method: (§4) Dog plasma and rat plasma is obtained from conscious mixed-breed hounds (either sex, Hazelton-LRE, Kalamazoo, Mich., U.S.A.) or from anesthetized male Sprague-Dawley rats (Harlan Sprague-Dawley, Inc., Indianapolis, Ind., U.S.A.) by venipuncture into 3.8 percent citrate. Fibrinogen is prepared from in-date ACD human blood as the fraction I-2 according to previous procedures and specifications. Smith, Biochem. J., 185, 1-11 (1980); and Smith, et al., Biochemistry, 11, 2958-2967 (1972). Human fibrinogen is also purchased as 98 percent pure/plasmin free from American Diagnostica, Greenwich, Conn. Coagulation reagents ACTIN, Thromboplastin, and Human plasma are from Baxter Healthcare Corp., Dade Division, Miami, Fla. Bovine thrombin from Parke-Davis ([…], Mich.) is used for coagulation assays in plasma.
# (§5) Coagulation assay procedures are as previously described. Smith, et al., Thrombosis Research, 50, 163-174 (1988). A CoAScreener coagulation instrument (American LABor, Inc.) is used for all coagulation assay measurements. The prothrombin time (PT) is measured by adding 0.05 mL saline and 0.05 mL Thromboplastin-C reagent to 0.05 mL test plasma. The activated partial thromboplastin time (APTT) is measured by incubation of 0.05 mL test plasma with 0.05 mL Actin reagent for 120 seconds followed by 0.05 mL CaCl2 (0.02 M). The thrombin time (TT) is measured by adding 0.05 mL saline and 0.05 mL thrombin (10 NIH units/mL) to 0.05 mL test plasma. The compounds of formula I are added to human or animal plasma over a wide range of concentrations to determine prolongation effects on the APTT, PT, and TT assays. Linear extrapolations are performed to estimate the concentrations required to double the clotting time for each assay.
# [4] = test system: human plasma; assay: Human plasma anticoagulation, prothrombin time (PT); details: concentration required to double the PT, linear extrapolation
# Method: as §4, §5
# [5] = target: T3, human thrombin (Homo sapiens, UniProt P00734); assay: Inhibition of amidase activity of thrombin (Kass), chromogenic substrate; format: biochemical; details: apparent association constant, mean over a range of concentrations
# T3 construct: purified human thrombin, Enzyme Research Laboratories; purchased Enzyme Research Laboratories, South Bend, Indiana
# Method: The assay is carried out by mixing 50 μL buffer (0.03 M Tris, 0.15 M NaCl, pH 7.4) with 25 μL of bovine thrombin or human thrombin solution (0.21 mg/mL of thrombostat bovine thrombin, Parke-Davis, or purified human thrombin, Enzyme Research Laboratories, South Bend, Indiana, at about 8 NIH units/mL, in the same buffer) and 25 μL of test compound in a solvent (in 50% aqueous methanol, v:v). The 150 μL of an aqueous solution of the chromogenic substrate (at 0.25 mg/mL) are added and the rates of hydrolysis of the substrate are measured by monitoring the reactions at 405 nm for the release of p-nitroaniline. Standard curves are constructed by plotting free thrombin concentration against hydrolysis rate. The hydrolysis rates observed with test compounds are then converted to "free thrombin" values in the respective assays by use of the standard curves. The bound thrombin (bound to test compound) is calculated by subtracting the amount of free thrombin observed in each assay from the known initial amount of thrombin used in the assay. The amount of free inhibitor in each assay is calculated by subtracting the number of moles of bound thrombin from the number of moles of added inhibitor (test compound).
# The Kass value is the hypothetical equilibrium constant for the reaction between thrombin and the test compound (I). [formula]
# Kass is calculated for a range of concentrations of test compounds and the mean value is reported in units of liter per mole.
# [6] = test system: human plasma; assay: Human plasma anticoagulation, activated partial thromboplastin time (APTT); details: concentration required to double the APTT, linear extrapolation
# Method: as §4, §5
# [7] = target: T4, factor Xa (Homo sapiens, UniProt P00742); assay: Serine protease selectivity, Kass, factor Xa chromogenic assay; format: biochemical; details: apparent association constant
# T4 construct: Human factors X, Xa, IXa, XIa, and XIIa are purchased from Enzyme Research Laboratories; purchased Enzyme Research Laboratories, South Bend, Ind
# T4 sequence (P00742 235-488 limits assumed): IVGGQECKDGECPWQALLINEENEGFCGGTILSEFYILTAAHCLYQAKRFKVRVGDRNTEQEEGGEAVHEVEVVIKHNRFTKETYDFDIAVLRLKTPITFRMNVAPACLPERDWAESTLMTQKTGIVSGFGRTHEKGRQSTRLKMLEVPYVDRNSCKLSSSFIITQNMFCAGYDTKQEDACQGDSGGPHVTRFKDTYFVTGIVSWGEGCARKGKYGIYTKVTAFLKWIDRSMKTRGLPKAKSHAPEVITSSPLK
# T4 sequence (P00742 41-179 partner limits assumed): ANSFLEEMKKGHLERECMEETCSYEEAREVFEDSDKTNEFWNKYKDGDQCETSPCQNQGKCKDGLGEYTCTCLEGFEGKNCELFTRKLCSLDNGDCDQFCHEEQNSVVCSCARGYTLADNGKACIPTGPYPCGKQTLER
# Method: as §1, §2
# [8] = target: T5, tissue plasminogen activator (t-PA) (Homo sapiens, UniProt P00750); assay: Fibrinolytic protease selectivity, Kass, t-PA chromogenic assay; format: biochemical; details: apparent association constant
# T5 construct: purchased American Diagnostica, Greenwich, Conn
# T5 sequence (P00750 36-562): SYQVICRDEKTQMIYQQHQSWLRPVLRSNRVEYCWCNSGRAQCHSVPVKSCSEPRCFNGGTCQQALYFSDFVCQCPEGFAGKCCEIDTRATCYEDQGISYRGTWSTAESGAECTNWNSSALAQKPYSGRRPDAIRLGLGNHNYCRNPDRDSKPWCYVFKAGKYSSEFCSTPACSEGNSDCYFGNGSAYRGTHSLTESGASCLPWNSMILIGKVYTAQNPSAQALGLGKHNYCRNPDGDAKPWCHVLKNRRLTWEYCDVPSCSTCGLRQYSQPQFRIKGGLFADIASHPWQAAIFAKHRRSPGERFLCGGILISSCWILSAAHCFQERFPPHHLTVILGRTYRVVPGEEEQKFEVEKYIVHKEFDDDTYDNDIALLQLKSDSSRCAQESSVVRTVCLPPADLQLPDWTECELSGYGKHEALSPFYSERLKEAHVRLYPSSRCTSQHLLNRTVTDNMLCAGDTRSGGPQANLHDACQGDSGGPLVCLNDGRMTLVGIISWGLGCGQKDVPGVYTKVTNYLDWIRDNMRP
# Method: as §1, §3
Compound,Enzyme Kass Trypsin [1],Enzyme Kass Plasmin [2],Enzyme Kass Human Thrombin [5],Enzyme Kass Xa [7],Enzyme Kass t-PA [8],Human Plasma Anticoagulation 2 × Clotting time TT [3],Human Plasma Anticoagulation 2 × Clotting time PT [4],Human Plasma Anticoagulation 2 × Clotting time APTT [6]
"CCS(=O)(=O)N[C@H](Cc1ccccc1)C(=O)N(C)CC(=O)N[C@H](C=O)CCCNC(=N)N.Cl.Cl [Example 16, N-(ethylsulfonyl)-D-phenylalanyl-N-methylglycyl-L-argininal dihydrochloride]",22 L/mol × 10^6,1.5 L/mol × 10^6,37 L/mol × 10^6,3.3 L/mol × 10^6,1.2 L/mol × 10^6,30 ng/mL,"1,600 ng/mL","1,200 ng/mL"
"Cl.Cl.N=C(N)NCCC[C@@H](C=O)NC(=O)CN(Cc1ccccc1)C(=O)[C@H]1CCCCN1 [Example 7, D--hPro--N(Bn)Gly--ArgH.2HCl] (H-[dPip]-[Nphe]-Arg-aldehyde)",10 L/mol × 10^6,0.13 L/mol × 10^6,11 L/mol × 10^6,0.25 L/mol × 10^6,0.010 L/mol × 10^6,120 ng/mL,"4,400 ng/mL","3,700 ng/mL"
"Cl.Cl.N=C(N)NCCC[C@@H](C=O)NC(=O)CN(CCCc1ccccc1)C(=O)[C@H]1CCCCN1 [Example 9, D--hPro--N(PhCH2 CH2 CH2)Gly--ArgH.2HCl]",6.0 L/mol × 10^6,0.12 L/mol × 10^6,24 L/mol × 10^6,0.31 L/mol × 10^6,0.006 L/mol × 10^6,55 ng/mL,"3,000 ng/mL","2,200 ng/mL"
"Cc1ccccc1N(CC(=O)N[C@H](C=O)CCCN=C(N)N)C(=O)[C@H]1CCCCN1.Cl.Cl [Example 12, D--hPro--N(o--Me--Ph)Gly--ArgH.2HCl]",0.55 L/mol × 10^6,0.060 L/mol × 10^6,3.3 L/mol × 10^6,0.14 L/mol × 10^6,0.0064 L/mol × 10^6,370 ng/mL,"8,200 ng/mL","4,900 ng/mL"

# Now from value to compound, other results behind:
Enzyme Kass Trypsin [1],Enzyme Kass Plasmin [2],Enzyme Kass Human Thrombin [5],Enzyme Kass Xa [7],Enzyme Kass t-PA [8],Compound,Human Plasma Anticoagulation 2 × Clotting time TT [3],Human Plasma Anticoagulation 2 × Clotting time PT [4],Human Plasma Anticoagulation 2 × Clotting time APTT [6]
0.60 L/mol × 10^6,0.016 L/mol × 10^6,1.2 L/mol × 10^6,0.062 L/mol × 10^6,0.001 L/mol × 10^6,"Cl.Cl.N=C(N)NCCC[C@@H](C=O)NC(=O)CN(CCCC(=O)O)C(=O)[C@H]1CCCCN1 [Example 14, D--hPro--N(CH2 CH2 CH2 COOH)Gly--ArgH.2HCl]",700 ng/mL,"30,000 ng/mL","20,000 ng/mL"
1.6 L/mol × 10^6,0.050 L/mol × 10^6,24 L/mol × 10^6,0.060 L/mol × 10^6,0.002 L/mol × 10^6,"CC(C)CN(CC(=O)N[C@H](C=O)CCCNC(=N)N)C(=O)[C@H]1CCCCN1.Cl.Cl [Example 5, D--hPro--N(i--Bu)Gly--ArgH.2HCl] (H-[dPip]-[Nleu]-Arg-aldehyde)",100 ng/mL,"4,900 ng/mL","3,800 ng/mL"
0.99 L/mol × 10^6,0.020 L/mol × 10^6,1.8 L/mol × 10^6,0.078 L/mol × 10^6,0.001 L/mol × 10^6,"Cl.Cl.N=C(N)NCCC[C@@H](C=O)NC(=O)CN(CCCCC(=O)O)C(=O)[C@H]1CCCCN1 [Example 15, D--hPro--N(CH2 CH2 CH2 CH2 COOH)Gly--ArgH.2HCl]",670 ng/mL,"21,000 ng/mL","15,000 ng/mL"
2.4 L/mol × 10^6,0.045 L/mol × 10^6,34 L/mol × 10^6,0.084 L/mol × 10^6,0.004 L/mol × 10^6,"CCCN(CC(=O)N[C@H](C=O)CCCNC(=N)N)C(=O)[C@H]1CCCCN1.Cl.Cl [Example 3, D-homoprolyl-N-n-propylglycyl-L-argininal dihydrochloride]",77 ng/mL,"2,000 ng/mL","2,100 ng/mL"
